Measured values as given in ChEMBL document CHEMBL5724806, “Unraveling interindividual differences and functional consequences of gut microbial metabolism of immunosuppressants” (2024).

Key:
Format in all cases: ADME
[1] = (§1) The drug is tested on Lactobacillus gasseri strain: DSM20243 for biotransformation under microaerobic condition. The drug concentrations were measured over 6 timepoints collected between 0 and 12 hours of incubation by liquid-chromatography-coupled mass spectrometry (LC–MS); design: dose 5 uM, timepoint 0, 1.5, 3, 6, 9, 12 hours; conditions: 5 µM
[2] = as §1, with “the gut metagenome community of P-01 with ENA study accession number: PRJEB31790” for “Lactobacillus gasseri strain: DSM20243”, “7” for “6”; design: dose 5 uM, timepoint 0, 0.75, 1.5, 3, 6, 9, 12 hours; conditions: 5 µM
[3] = (§2) The drug is tested on the gut metagenome community of A-02 with ENA study accession number: PRJEB31790 for biotransformation under anaerobic condition. The drug concentrations were measured over 7 timepoints collected between 0 and 12 hours of incubation by liquid-chromatography-coupled mass spectrometry (LC–MS); design: dose 5 uM, timepoint 0, 0.75, 1.5, 3, 6, 9, 12 hours; conditions: 5 µM
[4] = The drug is tested on Parabacteroides distasonis strain: DSM20701 for biotransformation under anaerobic condition. The drug concentrations were measured over 6 timepoints collected between 0 and 12 hours of incubation by liquid-chromatography-coupled mass spectrometry (LC–MS); design: dose 5 uM, timepoint 0, 1.5, 3, 6, 9, 12 hours; conditions: 5 µM
[5] = The drug is tested on Lactobacillus gasseri strain: DSM20243 for biotransformation under anaerobic condition. The drug concentrations were measured over 6 timepoints collected between 0 and 12 hours of incubation by liquid-chromatography-coupled mass spectrometry (LC–MS); design: dose 5 uM, timepoint 0, 1.5, 3, 6, 9, 12 hours; conditions: 5 µM
[6] = The drug is tested on Gemella morbillorum strain: DSM20572 for biotransformation under microaerobic condition. The drug concentrations were measured over 6 timepoints collected between 0 and 12 hours of incubation by liquid-chromatography-coupled mass spectrometry (LC–MS); design: dose 5 uM, timepoint 0, 1.5, 3, 6, 9, 12 hours; conditions: 5 µM
[7] = The drug is tested on Lactobacillus paracasei strain: ATCC27092 for biotransformation under microaerobic condition. The drug concentrations were measured over 6 timepoints collected between 0 and 12 hours of incubation by liquid-chromatography-coupled mass spectrometry (LC–MS); design: dose 5 uM, timepoint 0, 1.5, 3, 6, 9, 12 hours; conditions: lacticaseibacillus paracasei, 5 µM
[8] = The drug is tested on Ruminococcus gnavus strain: ATCC29149 for biotransformation under anaerobic condition. The drug concentrations were measured over 6 timepoints collected between 0 and 12 hours of incubation by liquid-chromatography-coupled mass spectrometry (LC–MS); design: dose 5 uM, timepoint 0, 1.5, 3, 6, 9, 12 hours; conditions: mediterraneibacter gnavus, 5 µM
[9] = as §2, with “T-01” for “A-02”; design: dose 5 uM, timepoint 0, 0.75, 1.5, 3, 6, 9, 12 hours; conditions: 5 µM
[10] = as §2, with “A-03” for “A-02”; design: dose 5 uM, timepoint 0, 0.75, 1.5, 3, 6, 9, 12 hours; conditions: 5 µM
[11] = The drug is tested on Coprococcus comes strain: ATCC27758 for biotransformation under anaerobic condition. The drug concentrations were measured over 6 timepoints collected between 0 and 12 hours of incubation by liquid-chromatography-coupled mass spectrometry (LC–MS); design: dose 5 uM, timepoint 0, 1.5, 3, 6, 9, 12 hours; conditions: 5 µM
[12] = as §2, with “A-10” for “A-02”; design: dose 5 uM, timepoint 0, 0.75, 1.5, 3, 6, 9, 12 hours; conditions: 5 µM
[13] = The drug is tested on Streptococcus sanguinis strain: DSM20567 for biotransformation under anaerobic condition. The drug concentrations were measured over 6 timepoints collected between 0 and 12 hours of incubation by liquid-chromatography-coupled mass spectrometry (LC–MS); design: dose 5 uM, timepoint 0, 1.5, 3, 6, 9, 12 hours; conditions: 5 µM
[14] = The drug is tested on Lactobacillus reuteri strain: DSM20016 for biotransformation under microaerobic condition. The drug concentrations were measured over 6 timepoints collected between 0 and 12 hours of incubation by liquid-chromatography-coupled mass spectrometry (LC–MS); design: dose 5 uM, timepoint 0, 1.5, 3, 6, 9, 12 hours; conditions: limosilactobacillus reuteri, 5 µM
[15] = The drug is tested on Bifidobacterium longum strain: DSM20088 for biotransformation under anaerobic condition. The drug concentrations were measured over 6 timepoints collected between 0 and 12 hours of incubation by liquid-chromatography-coupled mass spectrometry (LC–MS); design: dose 5 uM, timepoint 0, 1.5, 3, 6, 9, 12 hours; conditions: 5 µM
[16] = The drug is tested on Bacteroides caccae strain: DSM19024 for biotransformation under anaerobic condition. The drug concentrations were measured over 6 timepoints collected between 0 and 12 hours of incubation by liquid-chromatography-coupled mass spectrometry (LC–MS); design: dose 5 uM, timepoint 0, 1.5, 3, 6, 9, 12 hours; conditions: 5 µM
[17] = as §2, with “A-09” for “A-02”; design: dose 5 uM, timepoint 0, 0.75, 1.5, 3, 6, 9, 12 hours; conditions: 5 µM
[18] = as §2, with “A-05” for “A-02”, “microaerobic” for “anaerobic”; design: dose 5 uM, timepoint 0, 0.75, 1.5, 3, 6, 9, 12 hours; conditions: 5 µM
[19] = The drug is tested on Eubacterium eligens strain: DSM3376 for biotransformation under anaerobic condition. The drug concentrations were measured over 6 timepoints collected between 0 and 12 hours of incubation by liquid-chromatography-coupled mass spectrometry (LC–MS); design: dose 5 uM, timepoint 0, 1.5, 3, 6, 9, 12 hours; conditions: lachnospira eligens, 5 µM
[20] = as §2, with “A-08” for “A-02”, “microaerobic” for “anaerobic”; design: dose 5 uM, timepoint 0, 0.75, 1.5, 3, 6, 9, 12 hours; conditions: 5 µM
[21] = as §2, with “T-03” for “A-02”, “microaerobic” for “anaerobic”; design: dose 5 uM, timepoint 0, 0.75, 1.5, 3, 6, 9, 12 hours; conditions: 5 µM
[22] = The drug is tested on Streptococcus anginosus strain: DSM20563 for biotransformation under microaerobic condition. The drug concentrations were measured over 6 timepoints collected between 0 and 12 hours of incubation by liquid-chromatography-coupled mass spectrometry (LC–MS); design: dose 5 uM, timepoint 0, 1.5, 3, 6, 9, 12 hours; conditions: 5 µM
[23] = The drug is tested on Collinsella aerofaciens strain: DSM3979 for biotransformation under anaerobic condition. The drug concentrations were measured over 6 timepoints collected between 0 and 12 hours of incubation by liquid-chromatography-coupled mass spectrometry (LC–MS); design: dose 5 uM, timepoint 0, 1.5, 3, 6, 9, 12 hours; conditions: 5 µM
[24] = The drug is tested on Streptococcus salivarius strain: DSM20560 for biotransformation under microaerobic condition. The drug concentrations were measured over 6 timepoints collected between 0 and 12 hours of incubation by liquid-chromatography-coupled mass spectrometry (LC–MS); design: dose 5 uM, timepoint 0, 1.5, 3, 6, 9, 12 hours; conditions: 5 µM
[25] = The drug is tested on Lactobacillus paracasei strain: ATCC27092 for biotransformation under anaerobic condition. The drug concentrations were measured over 6 timepoints collected between 0 and 12 hours of incubation by liquid-chromatography-coupled mass spectrometry (LC–MS); design: dose 5 uM, timepoint 0, 1.5, 3, 6, 9, 12 hours; conditions: lacticaseibacillus paracasei, 5 µM
[26] = as §2, with “A-07” for “A-02”; design: dose 5 uM, timepoint 0, 0.75, 1.5, 3, 6, 9, 12 hours; conditions: 5 µM
[27] = The drug is tested on Bacteroides stercoris strain: HM 1036 for biotransformation under anaerobic condition. The drug concentrations were measured over 6 timepoints collected between 0 and 12 hours of incubation by liquid-chromatography-coupled mass spectrometry (LC–MS); design: dose 5 uM, timepoint 0, 1.5, 3, 6, 9, 12 hours; conditions: 5 µM
[28] = The drug is tested on Eubacterium hallii strain: DSM3353 for biotransformation under anaerobic condition. The drug concentrations were measured over 6 timepoints collected between 0 and 12 hours of incubation by liquid-chromatography-coupled mass spectrometry (LC–MS); design: dose 5 uM, timepoint 0, 1.5, 3, 6, 9, 12 hours; conditions: anaerobutyricum hallii, 5 µM
[29] = The drug is tested on Streptococcus mitis strain: DSM12643 for biotransformation under anaerobic condition. The drug concentrations were measured over 6 timepoints collected between 0 and 12 hours of incubation by liquid-chromatography-coupled mass spectrometry (LC–MS); design: dose 5 uM, timepoint 0, 1.5, 3, 6, 9, 12 hours; conditions: 5 µM
[30] = as §2, with “P-04” for “A-02”, “microaerobic” for “anaerobic”; design: dose 5 uM, timepoint 0, 0.75, 1.5, 3, 6, 9, 12 hours; conditions: 5 µM

Row | Bacterial Biotransformation [1] | Bacterial Biotransformation [2] | Bacterial Biotransformation [3] | Bacterial Biotransformation [4] | Bacterial Biotransformation [5] | Bacterial Biotransformation [6] | Bacterial Biotransformation [7] | Bacterial Biotransformation [8] | Bacterial Biotransformation [9] | Bacterial Biotransformation [10] | Bacterial Biotransformation [11] | Bacterial Biotransformation [12] | Bacterial Biotransformation [13] | Bacterial Biotransformation [14] | Bacterial Biotransformation [15] | Bacterial Biotransformation [16] | Bacterial Biotransformation [17] | Bacterial Biotransformation [18] | Bacterial Biotransformation [19] | Bacterial Biotransformation [20] | Structure (SMILES) | also measured
1 | Compound NOT metabolized | Compound NOT metabolized | Compound NOT metabolized | Compound NOT metabolized | Compound NOT metabolized | Compound NOT metabolized | Compound NOT metabolized | Compound NOT metabolized | Compound NOT metabolized | Compound NOT metabolized | Compound NOT metabolized | Compound NOT metabolized | Compound NOT metabolized | Compound NOT metabolized | Compound NOT metabolized | Compound NOT metabolized | Compound NOT metabolized | Compound NOT metabolized | Compound NOT metabolized | Compound NOT metabolized | COc1c(C)c2c(c(O)c1C/C=C(\C)CCC(=O)O)C(=O)OC2 [MYCOPHENOLIC ACID] | Bacterial Biotransformation [21]: Compound NOT metabolized; Bacterial Biotransformation [22]: Compound NOT metabolized; Bacterial Biotransformation [23]: Compound NOT metabolized; Bacterial Biotransformation [24]: Compound NOT metabolized; Bacterial Biotransformation [25]: Compound NOT metabolized; Bacterial Biotransformation [26]: Compound NOT metabolized; Bacterial Biotransformation [27]: Compound NOT metabolized; Bacterial Biotransformation [28]: Compound NOT metabolized; Bacterial Biotransformation [29]: Compound NOT metabolized; Bacterial Biotransformation [30]: Compound NOT metabolized
2 | Compound NOT metabolized | Compound NOT metabolized | Compound NOT metabolized | Compound NOT metabolized | Compound NOT metabolized | Compound NOT metabolized | Compound NOT metabolized | Compound NOT metabolized | Compound metabolized | Compound NOT metabolized | Compound NOT metabolized | Compound NOT metabolized | Compound NOT metabolized | Compound NOT metabolized | Compound NOT metabolized | Compound NOT metabolized | Compound NOT metabolized | Compound NOT metabolized | Compound NOT metabolized | Compound NOT metabolized | C[C@@H](NCCCc1cccc(C(F)(F)F)c1)c1cccc2ccccc12 | Bacterial Biotransformation [21]: Compound NOT metabolized; Bacterial Biotransformation [22]: Compound NOT metabolized; Bacterial Biotransformation [23]: Compound NOT metabolized; Bacterial Biotransformation [24]: Compound NOT metabolized; Bacterial Biotransformation [25]: Compound NOT metabolized; Bacterial Biotransformation [26]: Compound NOT metabolized; Bacterial Biotransformation [27]: Compound NOT metabolized; Bacterial Biotransformation [28]: Compound NOT metabolized; Bacterial Biotransformation [29]: Compound NOT metabolized; Bacterial Biotransformation [30]: Compound NOT metabolized
3 | Compound NOT metabolized | Compound NOT metabolized | Compound NOT metabolized | Compound NOT metabolized | Compound NOT metabolized | Compound NOT metabolized | Compound NOT metabolized | Compound NOT metabolized | Compound metabolized | Compound NOT metabolized | Compound NOT metabolized | Compound NOT metabolized | Compound NOT metabolized | Compound NOT metabolized | Compound NOT metabolized | Compound NOT metabolized | Compound metabolized | Compound metabolized | Compound NOT metabolized | Compound metabolized | CCCC1O[C@@H]2C[C@H]3[C@@H]4CCC5=CC(=O)C=C[C@]5(C)[C@H]4[C@@H](O)C[C@]3(C)[C@]2(C(=O)CO)O1 (stereo not given in full) [BUDESONIDE] | Bacterial Biotransformation [21]: Compound NOT metabolized; Bacterial Biotransformation [22]: Compound NOT metabolized; Bacterial Biotransformation [23]: Compound NOT metabolized; Bacterial Biotransformation [24]: Compound NOT metabolized; Bacterial Biotransformation [25]: Compound NOT metabolized; Bacterial Biotransformation [26]: Compound metabolized; Bacterial Biotransformation [27]: Compound NOT metabolized; Bacterial Biotransformation [28]: Compound NOT metabolized; Bacterial Biotransformation [29]: Compound NOT metabolized; Bacterial Biotransformation [30]: Compound NOT metabolized
